Measured values: US9701670B2, “Pyrazolyl-ureas as kinase inhibitors” (RESPIVERT LIMITED, priority 2013, dated 2017)

How the values were obtained:
[1] = molecular target: p38 MAPKα isoform (MAPK14) (Homo sapiens (Human), UniProt Q16539); experiment: p38 MAPKα enzyme inhibition (FRET, Z-LYTE), Method 1; assay type: biochemical; conditions: Method 1 (Table 4a1)
Method: The enzyme inhibitory activities of compounds disclosed herein are determined by FRET using synthetic peptides labelled with both donor and acceptor fluorophores (Z-LYTE, Invitrogen Ltd., Paisley, UK).
The inhibitory activities of test compounds against the p38 MAPKα isoform (MAPK14: Invitrogen), are evaluated indirectly by determining the level of activation/phosphorylation of the down-stream molecule, MAPKAP-K2. The p38 MAPKα protein (80 ng/mL, 2.5 μL) is mixed with the test compound (2.5 μL of either 4 μg/mL, 0.4 μg/mL, 0.04 μg/mL or 0.004 μg/mL) for 2 hr at RT. […] The mixture is incubated for 1 hr at RT. Development reagent (protease, 5 μL) is added for 1 hr prior to detection in a fluorescence microplate reader (Varioskan® Flash, ThermoFisher Scientific).
In all cases, the site-specific protease cleaves non-phosphorylated peptide only and eliminates the FRET signal. Phosphorylation levels of each reaction are calculated using the ratio of coumarin emission (donor) over fluorescein emission (acceptor), for which high ratios indicate high phosphorylation and low ratios indicate low phosphorylation levels.

[2] = test system: Differentiated U937 cells; experiment: (l) Cell viability: MTT assay; assay type: cell-based, human; conditions: 1 μg/mL
Method: Differentiated U937 cells are pre-incubated with each test compound (final concentration 1 μg/mL or 10 μg/mL in 200 μL media indicated below) under two protocols: the first for 4 hr in 5% FCS RPMI1640 media and the second in 10% FCS RPMI1640 media for 24 h. The supernatant is replaced with new media (200 μL) and MTT stock solution (10 μL, 5 mg/mL) is added to each well. After incubation for 1 hr the media are removed, DMSO (200 μL) is added to each well and the plates are shaken lightly for 1 hr prior to reading the absorbance at 550 nm. The percentage loss of cell viability is calculated for each well relative to vehicle (0.5% DMSO) treatment. Consequently an apparent increase in cell viability for drug treatment relative to vehicle is tabulated as a negative percentage.

Sequence of p38 MAPKα isoform (MAPK14) (Q16539 whole entry, canonical isoform): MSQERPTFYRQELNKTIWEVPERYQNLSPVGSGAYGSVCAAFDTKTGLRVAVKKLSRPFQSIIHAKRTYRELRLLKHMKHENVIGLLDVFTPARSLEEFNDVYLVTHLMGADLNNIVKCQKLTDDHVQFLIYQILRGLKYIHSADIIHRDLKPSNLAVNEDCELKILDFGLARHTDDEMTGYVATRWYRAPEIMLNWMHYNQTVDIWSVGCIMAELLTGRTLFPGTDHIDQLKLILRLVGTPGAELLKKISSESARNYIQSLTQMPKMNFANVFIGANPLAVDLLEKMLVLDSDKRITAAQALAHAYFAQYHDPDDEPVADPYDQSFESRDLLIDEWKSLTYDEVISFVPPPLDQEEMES

Structure (SMILES) | IC50 [1] [nM] | Cell viability at time point in d-U937 cells 4 h [2] | Cell viability at time point in d-U937 cells 24 h [2]
COc1ccc(C(=O)NCCN(C)C)cc1Nc1nccc(Oc2ccc(NC(=O)Nc3cc(C(C)C)nn3-c3ccc(C)cc3)c3ccccc23)n1 [Example 28, N-(2-(dimethylamino)ethyl)-3-((4-((4-(3-(3-isopropyl-1-(p-tolyl)-1H-pyrazol-5-yl)ureido)naphthalen-1-yl)oxy)pyrimidin-2-yl)amino)-4-methoxybenzamide] | < 1 | −ve (−ve and +ve indicate that the value is below and above respectively, the no significant effect threshold, defined as 30% inhibition at 1 μg/mL at the time point indicated.) | −ve (−ve and +ve indicate that the value is below and above respectively, the no significant effect threshold, defined as 30% inhibition at 1 μg/mL at the time point indicated.)
COc1cc(Nc2nccc(Oc3ccc(NC(=O)Nc4cc(C(C)(C)C)nn4-c4ccc(C)cc4)c4ccccc34)n2)cc(C(=O)NCCO)c1 [Example 64, 3-((4-((4-(3-(3-(tert-butyl)-1-(p-tolyl)-1H-pyrazol-5-yl)ureido)naphthalen-1-yl)oxy)pyrimidin-2-yl)amino)-N-(2-hydroxyethyl)-5-methoxybenzamide] | 8 | −ve (−ve and +ve indicate that the value is below and above respectively, the no significant effect threshold, defined as 30% inhibition at 1 μg/mL at the time point indicated.) | −ve (−ve and +ve indicate that the value is below and above respectively, the no significant effect threshold, defined as 30% inhibition at 1 μg/mL at the time point indicated.)
COc1ccc(-n2nc(C3CCCO3)cc2NC(=O)Nc2ccc(Oc3ccnc(Nc4cc(OC)cc(C(=O)NCCN5CCOCC5)c4)n3)c3ccccc23)cc1 (stereo not drawn) [Example 58, 3-methoxy-5-((4-((4-(3-(1-(4-methoxyphenyl)-3-(tetrahydrofuran-2-yl)-1H-pyrazol-5-yl)ureido)naphthalen-1-yl)oxy)pyrimidin-2-yl)amino)-N-(2-morpholinoethyl)benzamide] | < 1 | −ve (−ve and +ve indicate that the value is below and above respectively, the no significant effect threshold, defined as 30% inhibition at 1 μg/mL at the time point indicated.) | −ve (−ve and +ve indicate that the value is below and above respectively, the no significant effect threshold, defined as 30% inhibition at 1 μg/mL at the time point indicated.)
COc1cc(Nc2nccc(Oc3ccc(NC(=O)Nc4cc(C(F)(F)F)nn4-c4ccc(C)cc4)c4ccccc34)n2)cc(C(=O)NCCN2CCOCC2)c1 [Example 48, 3-methoxy-N-(2-morpholinoethyl)-5-((4-((4-(3-(1-(p-tolyl)-3-(trifluoromethyl)-1H-pyrazol-5-yl)ureido)naphthalen-1-yl)oxy)pyrimidin-2-yl)amino)benzamide] | 18 | −ve (−ve and +ve indicate that the value is below and above respectively, the no significant effect threshold, defined as 30% inhibition at 1 μg/mL at the time point indicated.) | −ve (−ve and +ve indicate that the value is below and above respectively, the no significant effect threshold, defined as 30% inhibition at 1 μg/mL at the time point indicated.)
CNC(=O)c1cccc(Nc2nccc(Oc3ccc(NC(=O)Nc4cc(C(C)(C)C)nn4-c4ccc(C)cc4)c4ccccc34)n2)c1 [Example 16, 3-((4-((4-(3-(3-(tert-butyl)-1-(p-tolyl)-1H-pyrazol-5-yl)ureido)naphthalen-1-yl)oxy)pyrimidin-2-yl)amino)-N-methylbenzamide] | 34 | −ve (−ve and +ve indicate that the value is below and above respectively, the no significant effect threshold, defined as 30% inhibition at 1 μg/mL at the time point indicated.) | −ve (−ve and +ve indicate that the value is below and above respectively, the no significant effect threshold, defined as 30% inhibition at 1 μg/mL at the time point indicated.)
COc1cc(Nc2nccc(Oc3ccc(NC(=O)Nc4cc(C(C)(C)C)nn4-c4ccc(C)cc4)c4ccccc34)n2)cc(C(=O)NCCN2CCOCC2)c1 [Example 52, 3-((4-((4-(3-(3-(tert-butyl)-1-(p-tolyl)-1H-pyrazol-5-yl)ureido)naphthalen-1-yl)oxy)pyrimidin-2-yl)amino)-5-methoxy-N-(2-morpholinoethyl)benzamide] | 13 | −ve (−ve and +ve indicate that the value is below and above respectively, the no significant effect threshold, defined as 30% inhibition at 1 μg/mL at the time point indicated.) | −ve (−ve and +ve indicate that the value is below and above respectively, the no significant effect threshold, defined as 30% inhibition at 1 μg/mL at the time point indicated.)
COc1ccc(-n2nc(C(C)(C)C)cc2NC(=O)Nc2ccc(Oc3ccnc(Nc4cc(OC)cc(C(=O)NCCN5CCOCC5)c4)n3)c3ccccc23)cc1 [Example 54, 3-((4-((4-(3-(3-(tert-butyl)-1-(4-methoxyphenyl)-1H-pyrazol-5-yl)ureido)naphthalen-1-yl)oxy)pyrimidin-2-yl)amino)-5-methoxy-N-(2-morpholinoethyl)benzamide] | 12 | −ve (−ve and +ve indicate that the value is below and above respectively, the no significant effect threshold, defined as 30% inhibition at 1 μg/mL at the time point indicated.) | −ve (−ve and +ve indicate that the value is below and above respectively, the no significant effect threshold, defined as 30% inhibition at 1 μg/mL at the time point indicated.)
Cc1ccc(-n2nc(C(C)(C)C)cc2NC(=O)Nc2ccc(Oc3ccnc(Nc4cc(Br)cc(C(=O)NCCN5CCOCC5)c4)n3)c3ccccc23)cc1 [Example 62, 3-bromo-5-((4-((4-(3-(3-(tert-butyl)-1-(p-tolyl)-1H-pyrazol-5-yl)ureido)naphthalen-1-yl)oxy)pyrimidin-2-yl)amino)-N-(2-morpholinoethyl)benzamide] | 22 | −ve (−ve and +ve indicate that the value is below and above respectively, the no significant effect threshold, defined as 30% inhibition at 1 μg/mL at the time point indicated.) | +ve (−ve and +ve indicate that the value is below and above respectively, the no significant effect threshold, defined as 30% inhibition at 1 μg/mL at the time point indicated.)
COc1ccc(-n2nc(C(C)C)cc2NC(=O)Nc2ccc(Oc3ccnc(Nc4cccc(C(=O)NCCN5CCOCC5)c4)n3)c3ccccc23)cc1 [Example 20, 3-((4-((4-(3-(3-isopropyl-1-(4-methoxyphenyl)-1H-pyrazol-5-yl)ureido)naphthalen-1-yl)oxy)pyrimidin-2-yl)amino)-N-(2-morpholinoethyl)benzamide] | 5 | −ve (−ve and +ve indicate that the value is below and above respectively, the no significant effect threshold, defined as 30% inhibition at 1 μg/mL at the time point indicated.) | −ve (−ve and +ve indicate that the value is below and above respectively, the no significant effect threshold, defined as 30% inhibition at 1 μg/mL at the time point indicated.)
COc1cc(Nc2cc(Oc3ccc(NC(=O)Nc4cc(C(C)C)nn4-c4ccc(C)cc4)c4ccccc34)ncn2)cc(C(=O)NCCN2CCOCC2)c1 [Example 71, 3-((6-((4-(3-(3-isopropyl-1-(p-tolyl)-1H-pyrazol-5-yl)ureido)naphthalen-1-yl)oxy)pyrimidin-4-yl)amino)-5-methoxy-N-(2-morpholinoethyl)benzamide] | 2 | −ve (−ve and +ve indicate that the value is below and above respectively, the no significant effect threshold, defined as 30% inhibition at 1 μg/mL at the time point indicated.) | −ve (−ve and +ve indicate that the value is below and above respectively, the no significant effect threshold, defined as 30% inhibition at 1 μg/mL at the time point indicated.)
COCCOc1cccc(-n2nc(C(C)(C)C)cc2NC(=O)Nc2ccc(Oc3ccnc(Nc4cc(OC)cc(C(=O)NCCN5CCOCC5)c4)n3)c3ccccc23)c1 [Example 55, 3-((4-((4-(3-(3-(tert-butyl)-1-(3-(2-methoxyethoxy)phenyl)-1H-pyrazol-5-yl)ureido)naphthalen-1-yl)oxy)pyrimidin-2-yl)amino)-5-methoxy-N-(2-morpholinoethyl)benzamide] | 9 | −ve (−ve and +ve indicate that the value is below and above respectively, the no significant effect threshold, defined as 30% inhibition at 1 μg/mL at the time point indicated.) | −ve (−ve and +ve indicate that the value is below and above respectively, the no significant effect threshold, defined as 30% inhibition at 1 μg/mL at the time point indicated.)
